Calls of active or inactive are those of the source. Rule as the data show it, for most assays here: actives have a measured EC50 and inactives only a lower limit.
Tested on: not listed separately
Assay: NIH3T3 cell viability loss – ATP luminescence, mouse fibroblasts, counter-screen, dose response (AID 2010);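 also: cells exposed to compound for about 90 hours before reading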
Assay type: functional, cell-based
Details: not given

SMILES	EC50
CC(=O)/C=C1\N(C)c2ccc(C)cc2C1(C)C	> 60 µM (not active)
Cc1cc(Nc2ccccc2)c2c([N+](=O)[O-])ccc(C)c2n1	> 30 µM (not active)

Tested on: H4
Assay: Luminescence Cell-Based Dose Response HTS to Identify Activators of 5'UTR Stem-Loop Driven Prion Protein mRNA Translation in H4 Neuroglioblastoma Cells. [Related pubchem assays: 1829 (Project Summary), 1814 (Primary HTS)]
Assay type: functional
Details: Homo sapiens

SMILES	EC50
CN(C)c1ccc(NC(S)=NC23CC4CC(CC(C4)C2)C3)cc1	17.1 µM (active)
O=C(COC(=O)/C=C/c1ccccc1[N+](=O)[O-])Nc1ccc(OCc2ccccc2)cc1	40.1 µM (active)
COc1cc(OC)cc(C(=O)NCC(=O)OCc2nc3ccccc3s2)c1	0.165 µM (active)
O=C1C(/C=C(\O)c2ccccc2)=NCC2c3ccccc3CCN12 (stereo unspecified)	8.18 µM (active)

Target: T1, Replicative DNA helicase DnaB (Mycobacterium tuberculosis, UniProt P9WMR3)
T1 sequence (P9WMR3 whole entry): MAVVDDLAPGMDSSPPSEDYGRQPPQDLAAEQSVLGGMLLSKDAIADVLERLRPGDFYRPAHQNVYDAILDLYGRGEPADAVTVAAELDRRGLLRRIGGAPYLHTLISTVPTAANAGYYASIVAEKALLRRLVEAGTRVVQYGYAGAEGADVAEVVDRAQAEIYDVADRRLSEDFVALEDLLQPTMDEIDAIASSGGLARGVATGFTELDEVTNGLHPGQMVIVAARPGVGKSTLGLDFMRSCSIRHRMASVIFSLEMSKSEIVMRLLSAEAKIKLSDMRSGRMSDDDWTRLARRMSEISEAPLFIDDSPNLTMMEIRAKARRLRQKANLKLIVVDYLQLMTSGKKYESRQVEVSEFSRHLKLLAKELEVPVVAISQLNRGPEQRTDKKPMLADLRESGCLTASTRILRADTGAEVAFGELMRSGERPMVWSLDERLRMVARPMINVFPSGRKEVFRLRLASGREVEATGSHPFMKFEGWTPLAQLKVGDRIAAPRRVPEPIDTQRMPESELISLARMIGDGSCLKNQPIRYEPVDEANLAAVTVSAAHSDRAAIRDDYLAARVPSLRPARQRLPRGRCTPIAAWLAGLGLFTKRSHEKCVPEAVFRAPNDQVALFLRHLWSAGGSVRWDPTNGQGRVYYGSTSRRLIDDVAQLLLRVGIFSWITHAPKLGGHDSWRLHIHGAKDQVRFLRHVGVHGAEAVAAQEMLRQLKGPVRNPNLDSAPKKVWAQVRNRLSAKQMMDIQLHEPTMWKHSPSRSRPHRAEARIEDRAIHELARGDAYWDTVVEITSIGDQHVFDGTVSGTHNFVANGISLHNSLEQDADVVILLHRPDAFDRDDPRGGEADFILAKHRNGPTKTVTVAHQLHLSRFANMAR
Assay: DnaB intein splicing inhibitors, dose response, biochemical, cell-free fluorescence (AID 449749)
Assay type: functional
Details: not given

SMILES	AC50
Cn1c2c(c(=O)n(C)c1=O)[C@@]1(C(=O)Nc3ccccc31)C(C#N)=C(N)O2	34.1 µM (inconclusive)
C=CCN1C(=O)NC(c2ccc(OC)cc2)(C(F)(F)F)S/C1=C(\C#N)c1nnc(N2CCOCC2)n1-c1ccccc1 (stereo unspecified)	6.76 µM (active)
N#CC1=C(N)Oc2[nH]nc(-c3ccccc3)c2C1c1ccncc1 (stereo unspecified)	12.3 µM (active)
O=C(CCl)c1ccc(Cc2ncc(C(F)(F)F)cc2Cl)s1	3.57 µM (active)
Cc1cc(Nc2ccccc2)c2c([N+](=O)[O-])ccc(C)c2n1	> 380 µM (inactive)

Tested on: not listed separately
Assay: Luminescence Cell-Based Dose Response HTS to Identify Activators of Luciferase Translation or Activity in H4 […] Cells. [Related pubchem assays: 1829 (Project Summary), 1814 (Primary HTS)]
Assay type: functional
Details: not given

SMILES	EC50
CN(C)c1ccc(NC(S)=NC23CC4CC(CC(C4)C2)C3)cc1	20.6 µM (active)
O=C(COC(=O)/C=C/c1ccccc1[N+](=O)[O-])Nc1ccc(OCc2ccccc2)cc1	4.21 µM (active)
COc1cc(OC)cc(C(=O)NCC(=O)OCc2nc3ccccc3s2)c1	14.6 µM (active)
O=C1C(/C=C(\O)c2ccccc2)=NCC2c3ccccc3CCN12 (stereo unspecified)	0.491 µM (active)

Target: T2, Heat shock factor protein 1 (Mus musculus, UniProt P38532)
T2 sequence (P38532 whole entry): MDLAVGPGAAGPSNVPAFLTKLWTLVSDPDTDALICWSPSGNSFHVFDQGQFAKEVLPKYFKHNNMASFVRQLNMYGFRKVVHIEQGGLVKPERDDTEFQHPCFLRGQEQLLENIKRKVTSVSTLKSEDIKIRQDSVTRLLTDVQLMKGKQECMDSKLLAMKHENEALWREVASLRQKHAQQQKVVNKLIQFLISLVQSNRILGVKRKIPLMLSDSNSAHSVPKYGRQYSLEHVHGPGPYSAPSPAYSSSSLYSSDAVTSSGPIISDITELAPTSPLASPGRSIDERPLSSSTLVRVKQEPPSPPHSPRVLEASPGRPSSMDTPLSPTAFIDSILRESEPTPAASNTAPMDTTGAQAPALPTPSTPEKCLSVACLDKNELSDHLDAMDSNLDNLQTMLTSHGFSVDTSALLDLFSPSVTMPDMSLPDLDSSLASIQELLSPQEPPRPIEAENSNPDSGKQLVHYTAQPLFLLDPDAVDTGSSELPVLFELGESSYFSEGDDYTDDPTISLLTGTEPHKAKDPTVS
Assay: decrease of HSF1-responsive luciferase luminescence – cell-based, NIH3T3, dose retest, confirmation (AID 2382);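 also: NIH3T3 fibroblasts with HSF1-driven luciferase reporter stressed by proteasome inhibitor MG132; luminescence from HSF1-driven luciferase expression after 8 hours of MG132 stress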
Assay type: functional
Details: not given

SMILES	EC50
CC1CCN(C2=NC(=O)/C(=C/c3ccccc3F)S2)CC1	> 195 µM (not active)
CC(C)(C)C(=O)/C=C/c1ccc(Oc2ccccc2)cc1	> 195 µM (not active)
O=C(Cc1ccccc1)Nc1nc2ccccc2s1	> 195 µM (not active)
CSCCC(NC(=O)CCC(=O)OCC(=O)[C@@]1(O)CCC2[C@@H]3CCC4=CC(=O)C=C[C@]4(C)C3[C@@H](O)C[C@@]21C)C(=O)O (stereo partly specified)	0.216 µM (active)
NC(=NOC(=O)Cc1ccccc1[N+](=O)[O-])c1cccnc1	> 195 µM (not active)
CCOC(=O)C1C(=O)OC(C)(C)C1C(C)C(=O)c1ccc(C)cc1 (stereo unspecified)	> 195 µM (not active)
O=C(NCc1ccco1)C(=O)NCC(c1ccco1)N1CCOCC1 (stereo unspecified)	> 195 µM (not active)
O=C(COc1ccc(F)cc1)Nc1cc(Cl)ccc1-n1cncn1	> 195 µM (not active)
Cc1ccc(NC(=O)NC(=O)CN2CCN(c3ccc(O)cc3)CC2)c(C)c1	> 195 µM (not active)
O=S(=O)(Nc1ccc2c(c1)OCCO2)c1cccc2nsnc12	4.32 µM (active)

Target: T3, Protein RecA (Mycobacterium tuberculosis, UniProt P9WHJ3)
T3 sequence (P9WHJ3 whole entry): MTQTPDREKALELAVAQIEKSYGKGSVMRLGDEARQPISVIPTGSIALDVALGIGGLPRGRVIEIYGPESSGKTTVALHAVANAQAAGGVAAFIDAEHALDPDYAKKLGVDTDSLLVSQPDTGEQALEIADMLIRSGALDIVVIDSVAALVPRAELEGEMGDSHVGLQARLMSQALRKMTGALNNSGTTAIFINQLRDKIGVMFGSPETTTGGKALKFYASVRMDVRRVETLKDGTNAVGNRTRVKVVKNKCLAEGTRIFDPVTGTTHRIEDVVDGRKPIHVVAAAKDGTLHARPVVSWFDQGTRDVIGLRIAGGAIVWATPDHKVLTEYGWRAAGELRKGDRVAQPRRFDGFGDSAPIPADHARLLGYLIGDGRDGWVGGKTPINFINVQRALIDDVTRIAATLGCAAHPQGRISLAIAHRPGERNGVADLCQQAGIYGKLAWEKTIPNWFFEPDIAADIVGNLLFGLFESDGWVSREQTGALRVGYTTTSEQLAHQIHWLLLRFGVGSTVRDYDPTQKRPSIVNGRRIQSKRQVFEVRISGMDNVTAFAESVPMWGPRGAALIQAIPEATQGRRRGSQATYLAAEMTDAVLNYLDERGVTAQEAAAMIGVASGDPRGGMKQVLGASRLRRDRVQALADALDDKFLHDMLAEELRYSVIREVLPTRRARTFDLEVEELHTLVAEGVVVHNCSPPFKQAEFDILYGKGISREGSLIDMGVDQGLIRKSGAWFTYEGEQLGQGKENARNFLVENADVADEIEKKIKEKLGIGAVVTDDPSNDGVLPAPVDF
Assay: Fluorescence Cell-Free Homogeneous Dose Retest to Identify Inhibitors of RecA-Intein Splicing Activity. [Related pubchem assays (depositor defined):AID2097, AID2223, AID489010, AID492950]
Assay type: functional
Details: not given

SMILES	EC50
Cn1c2c(c(=O)n(C)c1=O)[C@@]1(C(=O)Nc3ccccc31)C(C#N)=C(N)O2	17.5 µM (active)
C=CCN1C(=O)NC(c2ccc(OC)cc2)(C(F)(F)F)S/C1=C(\C#N)c1nnc(N2CCOCC2)n1-c1ccccc1 (stereo unspecified)	9.73 µM (active)
N#CC1=C(N)Oc2[nH]nc(-c3ccccc3)c2C1c1ccncc1 (stereo unspecified)	3.12 µM (active)
O=C(CCl)c1ccc(Cc2ncc(C(F)(F)F)cc2Cl)s1	1.69 µM (active)
Cc1cc(Nc2ccccc2)c2c([N+](=O)[O-])ccc(C)c2n1	0.551 µM (active)

Tested on: not listed separately
Assay: Trypanosoma cruzi growth suppression in host cells – NIH3T3 host cells, beta-gal luminescence, confirmation (AID 2044);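 also: intracellular parasites grown in NIH/3T3 mouse fibroblasts as host cells; luminescent beta-galactosidase reporter signal from transgenic T. cruzi replicating inside host cells; inhibitors lower the luminescence signal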
Assay type: functional, cell-based
Details: not given

SMILES	EC50
CC(=O)/C=C1\N(C)c2ccc(C)cc2C1(C)C	1.93 µM (active)
Cc1cc(Nc2ccccc2)c2c([N+](=O)[O-])ccc(C)c2n1	1.41 µM (active)

Tested on: Streptococcus
Assay: GAS UMAA2166 growth inhibition – luminescence, BacTiterGlo, counter-screen for streptokinase expression inhibitor project, dose response (AID 1915);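 also: potency for reduction of bacterial viability or growth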
Assay type: functional, organism-based
Details: not given

SMILES	EC50
O=C(CCl)c1ccc(Cc2ncc(C(F)(F)F)cc2Cl)s1	6.13 µM (active)

Tested on: INS1
Assay: INS-1E survival protection against cytokine death – cell-based, luminescence, retest, dose response (AID 449756);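 also: cell death triggered by IL-1 beta plus TNF-alpha plus IFN-gamma mixture; protective hits raise ATP signal compared with cytokine alone wells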
Assay type: functional
Details: Rattus norvegicus

SMILES	AC50
O=C(CC1C(=O)NCCN1Cc1ccc(-c2ccccc2)cc1)NC1CCC1 (stereo unspecified)	> 260 µM (inactive)
CN1N=C(C(C)(C)C)CS/C1=N/c1ccccc1	> 260 µM (inactive)
CC(=O)/C=C1\N(C)c2ccc(C)cc2C1(C)C	5.32 µM (active)
CN(C)c1ccc(NC(S)=NC23CC4CC(CC(C4)C2)C3)cc1	83.2 µM (active)
COc1ccc(C2CC(c3cccc(C)c3)n3nc(N)nc3N2)cc1 (stereo unspecified)	> 260 µM (inactive)

Target: T4, Rac GTPase-activating protein 1 (Homo sapiens, UniProt Q9H0H5)
T4 sequence (Q9H0H5 whole entry): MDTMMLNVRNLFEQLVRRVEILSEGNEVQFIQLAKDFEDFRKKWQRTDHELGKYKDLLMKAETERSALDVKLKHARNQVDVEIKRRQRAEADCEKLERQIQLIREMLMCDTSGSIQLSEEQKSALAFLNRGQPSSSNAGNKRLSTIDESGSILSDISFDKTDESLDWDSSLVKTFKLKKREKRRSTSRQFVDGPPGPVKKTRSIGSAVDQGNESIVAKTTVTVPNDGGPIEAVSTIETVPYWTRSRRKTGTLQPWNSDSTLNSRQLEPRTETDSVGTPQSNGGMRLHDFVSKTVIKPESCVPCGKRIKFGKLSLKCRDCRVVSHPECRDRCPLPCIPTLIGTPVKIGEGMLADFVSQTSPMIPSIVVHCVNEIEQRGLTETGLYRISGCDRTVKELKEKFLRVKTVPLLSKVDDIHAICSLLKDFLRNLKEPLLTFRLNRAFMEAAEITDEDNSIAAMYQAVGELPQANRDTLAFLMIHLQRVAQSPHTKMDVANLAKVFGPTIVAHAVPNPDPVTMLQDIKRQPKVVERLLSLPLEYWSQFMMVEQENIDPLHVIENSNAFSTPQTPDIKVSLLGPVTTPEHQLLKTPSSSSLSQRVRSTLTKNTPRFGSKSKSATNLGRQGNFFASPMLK
Assay: blockers of MgcRacGAP-driven Rac1 GTP hydrolysis – biochemical, ADP Hunter fluorescence, primary and confirmatory, confirmation (AID 624330)
Assay type: functional
Details: not given

SMILES	IC50
Cc1ccc(NC(=O)NC(=O)CN2CCN(c3ccc(O)cc3)CC2)c(C)c1	64.9 µM (active)

Target: T5, Streptokinase A (Streptococcus pyogenes serotype M1, UniProt P10520)
T5 sequence (P10520 whole entry): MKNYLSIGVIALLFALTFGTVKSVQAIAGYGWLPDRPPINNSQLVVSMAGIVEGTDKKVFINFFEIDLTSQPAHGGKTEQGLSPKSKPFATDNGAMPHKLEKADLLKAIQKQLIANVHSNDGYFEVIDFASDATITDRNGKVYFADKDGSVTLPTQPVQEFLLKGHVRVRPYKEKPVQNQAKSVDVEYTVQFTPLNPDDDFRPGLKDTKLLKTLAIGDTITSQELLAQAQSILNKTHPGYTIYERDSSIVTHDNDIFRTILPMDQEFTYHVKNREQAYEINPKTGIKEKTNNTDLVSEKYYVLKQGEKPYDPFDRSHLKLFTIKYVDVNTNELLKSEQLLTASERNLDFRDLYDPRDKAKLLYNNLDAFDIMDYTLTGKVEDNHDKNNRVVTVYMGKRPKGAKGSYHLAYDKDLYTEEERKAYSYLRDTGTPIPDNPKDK
Assay: viability-normalized secreted streptokinase activity reduction – plasminogen activation absorbance, OD405, dose response (AID 1914);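 also: secreted streptokinase activity via plasminogen activation per viability signal from cell pellet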
Assay type: functional, Streptococcus pyogenes M1 GAS
Details: not given

SMILES	EC50
O=C(CCl)c1ccc(Cc2ncc(C(F)(F)F)cc2Cl)s1	3.38 µM (active)

Tested on: Streptococcus sp. 'group A'
Assay: Streptococcus pyogenes SK(-)GAS viability under kanamycin – luminescence, BacTiterGlo, confirmation, counter-screen for streptokinase expression inhibitor project, dose response (AID 1900)
Assay type: functional, organism-based
Details: not given

SMILES	EC50
O=C(CCl)c1ccc(Cc2ncc(C(F)(F)F)cc2Cl)s1	4.31 µM (active)
